Structures can show the parent of a compound that is named as a salt. Where two headings read alike, the source gives them in different places.
Tests used:
mGlu2 [1] = biological target: T1, mGlu2 (Homo sapiens, UniProt Q14416); assay: FLIPR intracellular Ca2+ assay, potentiation of glutamate at mGlu2 receptor in HEK293 cell clone; type: cell-based; set-up: V5/His (named in the vector only); expressed in transfected cells; host or cells: HEK293; details: potentiation of 1 μM glutamate, HEK293 cells expressing human mGlu2, rGLAST and Galpha16
Experimental: For the purpose of the present study, a cell line permanently expressing the human mGlu2 receptor, the rat glutamate transporter rGLAST and the alpha subunit of G16 was generated by transfection. Briefly, HEK293 cells were seeded in petri dishes (diameter 15 cm) at a density of 2×10^6 cells in DMEM with glutamax (Invitrogen, GIBCO #21885-025), 10% dialyzed Fetal Calf Serum (Invitrogen, Gibco #26400-044), and incubated at 37° C. over night. The following day cells were transfected with Lipofectamine (Invitrogen, Gibco #18324-012) as recommended by the manufacturer, using linearized pcDNA3.1 (V5/His)-hmGlu2 receptor (ScaI) and pcDNA3.1 Zeo-Ga16 IRES rGLAST (SspI). After transfection the cells were selected in DMEM Glutamax Medium (Invitrogen, GIBCO #21885-025), containing 10% dialyzed fetal calf serum (FCS; (Invitrogen, Gibco #26400-044), antibiotic/antimycotic, 800 μg/ml Geneticin (G418) and 250 μg/ml Zeozin. Single clones were isolated manually and further subcloned by serial dilution.
The function of the mGlu2 receptor was determined by evaluating intracellular Ca^2+ concentrations under standard conditions in a fluorometric imaging plate reader (FLIPR, Molecular Devices, Union City, Calif. 94587, USA) by measuring the response of the cells to a test compound. The FLIPR assay is a common functional assay to monitor native or recombinant Galphaq-coupled receptors, and native or recombinant receptors normally linked to other G-protein signalling cascades, which are coupled to calcium through co-expression of an alpha subunit of a promiscuous or chimeric G-protein. In the assay the increase of intracellular calcium is measured through a calcium-dependent fluorescent dye (e.g. Fluo-4 AM) in the FLIPR instrument.
For selection of a suitable cell clone and also the subsequent measurements of the selected clone, 4×10^4 cells/well were plated on poly-D-lysine coated Biocoat-plates multiwell 96 in DMEM Glutamax (GIBCO #21885-025)/10% dialyzed FCS over night. The following day, the medium was aspirated and exchanged for glutamate-free DMEM (Gibco #21969-035), without FCS or glutamine, containing 50 μg/ml gentamycin (Gibco #15750). Cells were again incubated over night. Before the measurement, cells were loaded with 2 μM Fluo-4 AM (Molecular Probes, F14201; stock solution 1 mM in DMSO) and 0.02% Pluronic F127 (Molecular Probes, P3000; stock solution 10% in DMSO) in DMEM medium (Gibco #21969-035) for 45 minutes at 37° C. in a final volume of 100 μl per well. Finally, the plates were washed in a BioTec cell washer with HBSS, containing 20 mM HEPES. The end-volume in each well was 100 μl. The plates were subsequently measured in a fluorometric imaging plate reader (FLIPR, Molecular Devices, Union City, Calif. 94587, USA).
The compounds of the present invention were tested in the above-described FLIPR assay using the selected cell clone. Increased intracellular calcium levels were quantified following addition of test compound (agonism), as well as following addition of a submaximal concentration of 1 micromolar (1 μM) glutamate (potentiation).
For the determination of the effect of the test compound by itself (agonism) or by increasing the response to a submaximal concentration (e.g. 1 μM) of glutamate (potentiation), the resulting signal is determined by subtraction of the background fluorescence from the maximal fluorescent peak height of the respective response. In the FLIPR instrument the compound is given to the cell and its fluorescence response quantified by the FLIPR instrument (agonism). The concentration at which the compound exerts half its maximal effect is named the ‘effective concentration 50’ or ‘EC50’. The maximal effect induced by the test substance is normalized to the maximal effect exerted by 100 μM glutamate (set at 100%).
Ten minutes after addition of the test compound to the plate, 1 μM glutamate is added. A potentiator enhances the response of the receptor to glutamate. […]

mGlu2 [2] = biological target: T1, mGlu2; details: agonist; cited from earlier work

T1 sequence (Q14416 19-872): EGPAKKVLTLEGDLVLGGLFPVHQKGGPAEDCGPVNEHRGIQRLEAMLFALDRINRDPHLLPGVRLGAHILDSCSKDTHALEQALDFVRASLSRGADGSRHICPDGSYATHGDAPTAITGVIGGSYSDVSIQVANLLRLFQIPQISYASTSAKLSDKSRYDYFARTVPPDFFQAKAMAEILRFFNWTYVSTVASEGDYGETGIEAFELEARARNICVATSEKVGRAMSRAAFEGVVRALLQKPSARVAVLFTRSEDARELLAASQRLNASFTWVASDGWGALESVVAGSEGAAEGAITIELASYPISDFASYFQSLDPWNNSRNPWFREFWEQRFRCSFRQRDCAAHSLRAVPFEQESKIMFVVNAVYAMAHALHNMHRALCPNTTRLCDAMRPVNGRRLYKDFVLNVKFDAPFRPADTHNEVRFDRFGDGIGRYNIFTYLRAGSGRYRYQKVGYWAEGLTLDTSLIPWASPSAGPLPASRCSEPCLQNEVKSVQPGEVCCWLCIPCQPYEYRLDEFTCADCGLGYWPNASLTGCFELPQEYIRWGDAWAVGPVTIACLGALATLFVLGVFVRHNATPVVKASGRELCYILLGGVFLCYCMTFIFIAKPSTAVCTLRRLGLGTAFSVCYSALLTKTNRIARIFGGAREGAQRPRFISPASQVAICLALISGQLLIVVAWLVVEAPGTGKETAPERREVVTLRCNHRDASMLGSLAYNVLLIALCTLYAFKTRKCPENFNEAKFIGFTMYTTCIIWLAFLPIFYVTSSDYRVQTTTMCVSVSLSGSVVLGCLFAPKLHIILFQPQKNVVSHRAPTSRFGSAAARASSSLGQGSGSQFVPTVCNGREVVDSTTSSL

Structure (SMILES) | EC50 (mGlu2 [1]) [nM] | EC50 (mGlu2 [2]) [nM]
CCCCN1Cc2cc(Oc3cncc(-c4ccccc4)c3)ccc2C1=O [Example 11, 2-butyl-5-[(5-phenylpyridin-3-yl)oxy]-2,3-dihydro-1H-isoindol-1-one] | < 500 | 
COCCN1Cc2cc(Nc3cncc(-c4ccccc4)c3)ccc2C1=O [Example 19, 2-(2-methoxyethyl)-5-[(5-phenylpyridin-3-yl)amino]-2,3-dihydro-1H-isoindol-1-one] | 500 to 2000 | 
N[C@@]1(C(=O)O)CO[C@H]2[C@H](C(=O)O)[C@H]21 [LY379268] |  | 3
CCCCN1Cc2cc(Cc3cncc(-c4ccccc4)c3)ccc2C1=O [Example 23, 2-butyl-5-[(5-phenylpyridin-3-yl)methyl]-2,3-dihydro-1H-isoindol-1-one] | 500 to 2000 | 
CCCCN1Cc2c(Oc3cncc(-c4ccccc4)c3)cccc2C1=O [Example 12, 2-butyl-4-[(5-phenylpyridin-3-yl)oxy]-2,3-dihydro-1H-isoindol-1-one trifluoroacetate] | < 500 | 
CCCCN1CCc2c(Oc3cc(N4CCN(C)CC4)cnc3Cl)cccc2C1=O [Example 22, 2-butyl-5-{[2-chloro-5-(4-methylpiperazin-1-yl)pyridin-3-yl]oxy}-3,4-dihydroisoquinolin-1(2H)-one] | 500 to 2000 | 
CCCCN1Cc2cc(Nc3cncc(N4CCOCC4)c3)ccc2C1=O [Example 8, 2-butyl-5-{[5-(morpholin-4-yl)pyridin-3-yl]amino}-2,3-dihydro-1H-isoindol-1-one] | < 500 | 
CCCCN1Cc2cc(-c3cncc(-c4ccccc4)c3)ccc2C1=O [Example 24, 2-butyl-5-(5-phenylpyridin-3-yl)-2,3-dihydro-1H-isoindol-1-one] | 500 to 2000 | 
CCCCN1Cc2cc(Nc3cc(N4CCN(C)CC4)cnc3Cl)ccc2C1=O [Example 9, 2-butyl-5-{[2-chloro-5-(4-methylpiperazin-1-yl)pyridin-3-yl]amino}-2,3-dihydro-1H-isoindol-1-one] | 500 to 2000 | 
CCCCN1CCc2cc(Oc3cncc(-c4ccccc4)c3)ccc2C1=O [Example 14, 2-butyl-6-[(5-phenylpyridin-3-yl)oxy]-3,4-dihydroisoquinolin-1(2H)-one trifluoroacetate] | < 500 | 
CCCCN1Cc2ccc(Oc3cncc(-c4ccccc4)c3)cc2C1=O [Example 15, 2-butyl-6-[(5-phenylpyridin-3-yl)oxy]-2,3-dihydro-1H-isoindol-1-one trifluoroacetate] | 500 to 2000 | 
CCCCN1Cc2cc(Nc3cncc(Cl)c3)ccc2C1=O [Example 7, 2-butyl-5-[(5-chloropyridin-3-yl)amino]-2,3-dihydro-1H-isoindol-1-one] | 500 to 2000 | 
CCCCN1Cc2cc(Nc3cncc(N4CCNCC4)c3)ccc2C1=O [Example 5, 2-butyl-5-{[5-(piperazin-1-yl)pyridin-3-yl]amino}-2,3-dihydro-1H-isoindol-1-one] | 2000 to 10000 | 
CCCCN1CCc2c(Oc3cncc(-c4ccccc4)c3)cccc2C1=O [Example 13, 2-butyl-5-[(5-phenylpyridin-3-yl)oxy]-3,4-dihydroisoquinolin-1(2H)-one trifluoroacetate] | < 500 | 
CCCCN1Cc2cc(Nc3cncc(-c4ccccc4)n3)ccc2C1=O [Example 16, 2-butyl-5-(6-phenyl-pyrazin-2-ylamino)-2,3-dihydro-isoindol-1-one] | < 500 | 
CCCCN1Cc2cc(Nc3cnc4ccccc4c3)ccc2C1=O [Example 17, 2-butyl-5-(quinolin-3-ylamino)-2,3-dihydro-1H-isoindol-1-one] | 500 to 2000 | 
CCCCN1CCc2c(Oc3cc(N4CCNCC4)cnc3Cl)cccc2C1=O [Example 21, 2-butyl-5-{[2-chloro-5-(piperazin-1-yl)pyridin-3-yl]oxy}-3,4-dihydroisoquinolin-1(2H)-one] | 500 to 2000 | 
CCCCN1Cc2cc(Nc3cnc4ccccc4n3)ccc2C1=O [Example 18, 2-butyl-5-(quinoxalin-2-ylamino)-2,3-dihydro-1H-isoindol-1-one] | 2000 to 10000 | 
CCCCN1Cc2cc(Nc3cncc(-c4ccccc4)c3)cc(Cl)c2C1=O [Example 4, 2-butyl-7-chloro-5-[(5-phenylpyridin-3-yl)amino]-2,3-dihydro-1H-isoindol-1-one] | 500 to 2000 | 
CCCCN1Cc2cc(Nc3cccnc3Cl)ccc2C1=O [Example 20, 2-butyl-5-[(2-chloropyridin-3-yl)amino]-2,3-dihydro-1H-isoindol-1-one] | 2000 to 10000 | 
CCCCN1Cc2cc(Nc3cc(N4CCNCC4)cnc3Cl)ccc2C1=O [Example 6, 2-butyl-5-{[2-chloro-5-(piperazin-1-yl)pyridin-3-yl]amino}-2,3-dihydro-1H-isoindol-1-one] | 2000 to 10000 | 
CCCCN1Cc2cc(Nc3cncc(N4CCN(C)CC4)c3)ccc2C1=O [Example 10, 2-butyl-5-{[5-(4-methylpiperazin-1-yl)pyridin-3-yl]amino}-2,3-dihydro-1H-isoindol-1-one] | 2000 to 10000 | 

From patent publication US8314120B2, “Small molecule potentiators of metabotropic glutamate receptors” (Abbott GmbH & Co. KG, priority 2010, dated 2012)
